# Assay results as given in US9688669B2, “Oxazolidinones as modulators of mGluR5” (BRISTOL-MYERS SQUIBB COMPANY, priority 2013, dated 2017).
# Molecular target: human mGluR5A (Homo sapiens (Human), UniProt P41594)
# Assay: mGluR5 FLIPR Assay
# Format: cell-based
# Conditions: positive modulator activity, HEK293 (ZF) cells with human mGluR5A and rat GLAST, Ca++ response to ~EC10 l-glutamate
# Description: HEK293 (ZF) cells stably transfected with human mGluR5A (pIRES neo) and the rat glutamate-aspartate transporter (GLAST; pIRES puro) are grown in a monolayer culture at 37° C. in 5% CO2 and fed with Minimum Essential Medium (MEM) supplemented with 10% dialysed fetal bovine serum. […] Plates are incubated in dye at 37° C. in 5% CO2 for 60 minutes prior to delivery of test compounds in assay buffer. Test compounds are incubated with cells in the presence of dye for 10 minutes prior to being read on the FLIPR platform (Molecular Devices). A Ca^++ signal is induced in the assay plates via the delivery of an ˜EC10 concentration of the endogenous agonist 1-glutamate; images are acquired at 1 Hz for 100 seconds post-delivery of agonist stimulus. Positive modulator activity (i.e. the ability of test compounds to increase the Ca^++ response to a sub-maximal concentration of agonist) is normalized to a saturating concentration of a known mGluR5 PAM run in each assay plate. An EC50 concentration of test compounds is derived from 4-parameter logistic curve fits of transformed fluoresence data via proprietary software suite.
# human mGluR5A, sequence (P41594 other isoform, or with tags, fused parts or gaps): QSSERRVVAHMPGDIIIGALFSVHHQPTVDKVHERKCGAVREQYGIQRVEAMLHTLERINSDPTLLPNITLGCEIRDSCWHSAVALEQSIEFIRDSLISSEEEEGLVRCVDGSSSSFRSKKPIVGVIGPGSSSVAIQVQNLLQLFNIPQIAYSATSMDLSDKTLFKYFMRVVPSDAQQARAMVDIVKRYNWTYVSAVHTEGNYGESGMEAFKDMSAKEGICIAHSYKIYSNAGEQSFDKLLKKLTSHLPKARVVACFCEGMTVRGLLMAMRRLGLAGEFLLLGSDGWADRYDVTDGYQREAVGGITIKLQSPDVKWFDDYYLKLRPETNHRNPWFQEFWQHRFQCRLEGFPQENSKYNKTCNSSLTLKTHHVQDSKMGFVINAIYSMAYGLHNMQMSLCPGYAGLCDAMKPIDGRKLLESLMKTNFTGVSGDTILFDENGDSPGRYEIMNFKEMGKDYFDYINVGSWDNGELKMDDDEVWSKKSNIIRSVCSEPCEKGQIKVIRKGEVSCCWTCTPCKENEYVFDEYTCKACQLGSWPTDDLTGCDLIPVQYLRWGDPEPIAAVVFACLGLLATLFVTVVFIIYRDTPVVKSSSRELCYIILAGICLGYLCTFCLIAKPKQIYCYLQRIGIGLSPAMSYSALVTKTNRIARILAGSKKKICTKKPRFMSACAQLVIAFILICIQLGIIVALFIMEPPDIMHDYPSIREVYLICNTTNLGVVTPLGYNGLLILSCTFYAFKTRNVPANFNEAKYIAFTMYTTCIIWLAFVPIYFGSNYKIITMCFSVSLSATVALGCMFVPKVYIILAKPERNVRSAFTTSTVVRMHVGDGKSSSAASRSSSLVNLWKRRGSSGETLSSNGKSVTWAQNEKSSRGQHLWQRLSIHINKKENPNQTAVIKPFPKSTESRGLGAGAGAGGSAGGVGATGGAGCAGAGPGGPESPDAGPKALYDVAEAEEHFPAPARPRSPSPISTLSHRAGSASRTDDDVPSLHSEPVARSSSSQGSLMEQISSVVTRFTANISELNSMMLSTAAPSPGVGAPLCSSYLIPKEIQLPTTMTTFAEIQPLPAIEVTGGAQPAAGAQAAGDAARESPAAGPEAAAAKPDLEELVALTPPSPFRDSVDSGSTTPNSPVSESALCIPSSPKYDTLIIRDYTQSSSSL
row,Compound,EC50
1,Cc1ccnn1CC#Cc1cncc([C@H]2NC(=O)O[C@@H]2c2cccc(F)c2)c1 [Example 31],108 nM
2,CCC(C)(O)C#Cc1cncc([C@H]2NC(=O)O[C@@H]2c2cccc(F)c2)c1 (stereo partly drawn) [Example 16],> 3230 nM
3,O=C1N[C@H](c2cncc(C#CCn3cc(Cl)cn3)c2)[C@@H](c2cccc(F)c2)O1 [Example 27],48.2 nM
4,CC(O)CCC#Cc1cncc([C@H]2NC(=O)O[C@@H]2c2cccc(F)c2)c1 (stereo partly drawn) [Example 8],12.3 nM
5,O=C1N[C@H](c2cncc(C#CC(O)C3CCC3)c2)[C@@H](c2cccc(F)c2)O1 (stereo partly drawn) [Example 14],16.6 nM
6,CCCC(O)C#Cc1cncc([C@H]2NC(=O)O[C@@H]2c2cccc(F)c2)c1 (stereo partly drawn) [Example 12],15.4 nM
7,O=C1N[C@H](c2cncc(C#CC3(O)CCCC3)c2)[C@@H](c2cccc(F)c2)O1 [Example 39],510 nM
8,CCC(O)C#Cc1cncc([C@H]2NC(=O)O[C@@H]2c2cccc(F)c2)c1 (stereo partly drawn) [Example 32],116 nM
9,O=C1N[C@H](c2cncc(C#CCn3ccnc3)c2)[C@@H](c2cccc(F)c2)O1 [Example 33],134 nM
10,CCCC#Cc1cncc([C@H]2NC(=O)O[C@@H]2c2cccc(F)c2)c1 [Example 6],5.2 nM
11,O=C1N[C@H](c2cncc(C#CCC3CC3)c2)[C@@H](c2cccc(F)c2)O1 [Example 4],3.6 nM
12,CC(C)CC(O)C#Cc1cncc([C@H]2NC(=O)O[C@@H]2c2cccc(F)c2)c1 (stereo partly drawn) [Example 25],45.2 nM
13,Cc1ccn(CC#Cc2cncc([C@H]3NC(=O)O[C@@H]3c3cccc(F)c3)c2)n1 [Example 26],46.2 nM
14,"O=C1N[C@H](c2cncc(C#CCC3CCC3)c2)[C@@H](c2cccc(F)c2)O1 [Example 1, (4R,5R)-4-(5-(3-Cyclobutylprop-1-yn-1-yl)pyridin-3-yl)-5-(3-fluorophenyl)oxazolidin-2-one]",1.7 nM
15,O=C1N[C@H](c2cncc(C#CC(O)C3CCCCC3)c2)[C@@H](c2cccc(F)c2)O1 (stereo partly drawn) [Example 30],85.1 nM
16,CC(C)CC#Cc1cncc([C@H]2NC(=O)O[C@@H]2c2cccc(F)c2)c1 [Example 9],11.4 nM
17,COCC(O)CC#Cc1cncc([C@H]2NC(=O)O[C@@H]2c2cccc(F)c2)c1 (stereo partly drawn) [Example 37],383 nM
18,"CCCC(O)C#Cc1cncc([C@H]2NC(=O)O[C@@H]2c2cccc(F)c2)c1 (single isomer, unassigned) [Example 22]",32.3 nM

# The next lines start with the values.
row,EC50,Compound
1,77.3 nM,"O=C1N[C@H](c2cncc(C#CC(O)C3CC3)c2)[C@@H](c2cccc(F)c2)O1 (single isomer, unassigned) [Example 57]"
2,334 nM,O=C1N[C@H](c2cncc(C#CC(O)C3CC3(F)F)c2)[C@@H](c2cccc(F)c2)O1 (stereo partly drawn) [Example 76]
3,> 1610 nM,"COc1cccc([C@H]2OC(=O)N[C@@H]2c2cccc(C#CC3CC(F)(F)C3)c2)c1 [Example 116, (4R,5R)-4-(3-((3,3-Difluorocyclobutyl)ethynyl)phenyl)-5-(3-methoxyphenyl)oxazolidin-2-one]"
4,12.4 nM,O=C1N[C@H](c2cncc(C#CCC3CCCO3)c2)[C@@H](c2cccc(F)c2)O1 (stereo partly drawn) [Example 63]
5,27.9 nM,"O=C1N[C@H](c2cncc(C#CC(O)CC3CC3)c2)[C@@H](c2cccc(F)c2)O1 (single isomer, unassigned) [Example 73]"
6,67 nM,CCCCC(O)C#Cc1cncc([C@H]2NC(=O)O[C@@H]2c2cccc(F)c2)c1 (stereo partly drawn) [Example 56]
7,14.7 nM,O=C1N[C@H](c2cncc(C#CCC3CCOC3)c2)[C@@H](c2cccc(F)c2)O1 (stereo partly drawn) [Example 65]
8,1310 nM,"O=C1N[C@H](c2cncc(C#CC34CCC(CC3)CC4)c2)[C@@H](c2cc(F)ccc2F)O1 [Example 82, (4R,5R)-4-(5-(Bicyclo[2.2.2]octan-1-ylethynyl)pyridin-3-yl)-5-(2,5-difluorophenyl)oxazolidin-2-one]"
9,351 nM,"O=C1N[C@H](c2cncc(C#CC3CCCCC3)c2)[C@@H](c2cc(F)ccc2F)O1 [Example 81, (4R,5R)-4-(5-(Cyclohexylethynyl)pyridin-3-yl)-5-(2,5-difluorophenyl)oxazolidin-2-one]"
10,129 nM,CC1CC1C(O)C#Cc1cncc([C@H]2NC(=O)O[C@@H]2c2cccc(F)c2)c1 (stereo partly drawn) [Example 75]
11,> 1610 nM,O=C1N[C@H](c2cncc(C#CCNC(=O)C(F)(F)F)c2)[C@@H](c2cccc(F)c2)O1 [Example 48]
12,226 nM,"O=C1N[C@H](c2cncc(C#CC(O)C3CC3)c2)[C@@H](c2cccc(F)c2)O1 (single isomer, unassigned) [Example 59]"
13,1060 nM,"O=C1N[C@H](c2cncc(C#CC3(O)CCCCC3)c2)[C@@H](c2cccc(F)c2)O1 [Example 85, (4R,5R)-5-(3-Fluorophenyl)-4-(5-((1-hydroxycyclohexyl)ethynyl)pyridin-3-yl)oxazolidin-2-one]"
14,80.5 nM,"O=C1N[C@H](c2cncc(C#CC3CC(F)(F)C3)c2)[C@@H](c2ccc(F)c(F)c2F)O1 [Example 118, (4R,5R)-4-(5-((3,3-Difluorocyclobutyl)ethynyl)pyridin-3-yl)-5-(2,3,4-trifluorophenyl)oxazolidin-2-one]"
15,> 1610 nM,CC1(C)CC1C(O)C#Cc1cncc([C@H]2NC(=O)O[C@@H]2c2cccc(F)c2)c1 (stereo partly drawn) [Example 77]
16,9.3 nM,O=C1N[C@H](c2cncc(C#CCOCC(F)(F)F)c2)[C@@H](c2cccc(F)c2)O1 [Example 52]
17,88.6 nM,O=C1N[C@H](c2cncc(C#CCCOCC(F)(F)F)c2)[C@@H](c2cccc(F)c2)O1 [Example 67]
18,458 nM,COCC#Cc1cncc([C@H]2NC(=O)O[C@@H]2c2cccc(F)c2)c1 [Example 60]
19,27.8 nM,CCOCCC#Cc1cncc([C@H]2NC(=O)O[C@@H]2c2cccc(F)c2)c1 [Example 55]
20,58.6 nM,"O=C1N[C@H](c2cncc(C#CC3CC(F)(F)C3)c2)[C@@H](c2cc(F)c(F)cc2F)O1 [Example 122, (4R,5R)-4-(5-((3,3-Difluorocyclobutyl)ethynyl)pyridin-3-yl)-5-(2,4,5-trifluorophenyl)oxazolidin-2-one]"
21,> 3000 nM,"COc1cccc([C@H]2OC(=O)N[C@@H]2c2cccc(C#CC3CC3)c2)c1 [Example 80, (4R,5R)-4-(3-(Cyclopropylethynyl)phenyl)-5-(3-methoxyphenyl)oxazolidin-2-one]"
22,20 nM,O=C1N[C@H](c2cncc(C#CCC3CCOC3)c2)[C@@H](c2cccc(F)c2)O1 (stereo partly drawn) [Example 64]
23,> 3230 nM,"O=C1N[C@H](c2cc(C#CC3CC(F)(F)C3)ccn2)[C@@H](c2ccccc2)O1 [Example 112, (4R,5R)-4-(4-((3,3-Difluorocyclobutyl)ethynyl)pyridin-2-yl)-5-phenyloxazolidin-2-one]"
24,> 3230 nM,CC(C)C#Cc1cncc([C@H]2NC(=O)O[C@@H]2c2cccc(F)c2)c1 [Example 50]
